Measurements reported in paper PMC12830947, “Structure and mechanism of the broad spectrum CRISPR-associated ring nuclease Crn4” (Nature Communications, 2025).
Each block holds one compound with its values, some of them ahead of it.

How the values were obtained:
Crn4a = biological target: T1, Crn4a (Actinomyces procaprae, UniProt Z9F5G1FLT2); experiment: X-ray co-crystal structure, […] A; type: binding; conditions: active site at dimer interface, one cA6 per dimer; two Mg2+; pH 5.5; inactive variant
T1 construct: synthetic codon-optimised gene, pEhisV5TEV, E. coli C43(DE3); His tag removed by TEV; homodimer, one cA6 per dimer at the dimer interface
T1 sequence (Z9F5G1FLT2 1-149): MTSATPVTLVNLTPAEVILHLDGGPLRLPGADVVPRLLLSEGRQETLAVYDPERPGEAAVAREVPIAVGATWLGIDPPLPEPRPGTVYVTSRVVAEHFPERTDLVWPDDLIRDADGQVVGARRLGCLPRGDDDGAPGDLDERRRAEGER

Crn4b = biological target: T2, Crn4b (Hyphomicrobiales bacterium, UniProt A0ACM8DFW0); experiment: HPLC ring nuclease assay; type: biochemical; conditions: pH 7.5, 250 mM NaCl, 1 mM EDTA, 37 C
T2 construct: synthetic codon-optimised gene, pEhisV5TEV, E. coli C43(DE3); His tag removed by TEV; homodimer
T2 sequence (A0ACM8DFW0 5-128): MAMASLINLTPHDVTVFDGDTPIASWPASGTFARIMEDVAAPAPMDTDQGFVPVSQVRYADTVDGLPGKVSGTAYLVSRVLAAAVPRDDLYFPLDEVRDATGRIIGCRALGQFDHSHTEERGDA

[1] = biological target: Hyphomicrobiales bacterium Crn4b (CRISPR ring nuclease 4, subfamily b), wild type (Hyphomicrobiales bacterium); experiment: crystal structure; apo Crn4b at 15 mg/mL, sitting drop at 293 K, 20% PEG 6000, 10% ethylene glycol, 0.1 M calcium chloride; 1.09 Å
[2] = biological target: Actinomyces procaprae Crn4a (CRISPR ring nuclease 4, subfamily a), wild type (Actinomyces procaprae); experiment: crystal structure; apo Crn4a at 13 mg/mL, sitting drop at 293 K, 0.1 M sodium acetate pH 4.5, 22% v/v PEG Smear Broad; 2.34 Å
[3] = biological target: Actinomyces procaprae Crn4a H15A variant (Actinomyces procaprae); experiment: crystal structure; Crn4a H15A at 11 mg/mL with 1.2 molar excess of cA6, sitting drop at 293 K, 23.8% PEG 3350, 0.2 M magnesium chloride, 0.1 M Bis-Tris pH 5.5; 1.44 Å

Compound: Nc1ncnc2c1ncn2[C@@H]1O[C@@H]2COP(=O)(O)O[C@H]3[C@@H](O)[C@H](n4cnc5c(N)ncnc54)O[C@@H]3COP(=O)(O)O[C@H]3[C@@H](O)[C@H](n4cnc5c(N)ncnc54)O[C@@H]3COP(=O)(O)O[C@H]3[C@@H](O)[C@H](n4cnc5c(N)ncnc54)O[C@@H]3COP(=O)(O)O[C@H]3[C@@H](O)[C@H](n4cnc5c(N)ncnc54)O[C@@H]3COP(=O)(O)O[C@H]3[C@@H](O)[C@H](n4cnc5c(N)ncnc54)O[C@@H]3COP(=O)(O)O[C@H]2[C@H]1O [cA6, cyclic hexa-adenylate]
X-ray co-crystal structure, 1.44 A (Crn4a): The structure of Crn4a in complex with cA6 shows the ligand binds at the dimer interface

Compound: Nc1ncnc2c1ncn2[C@@H]1O[C@@H]2COP(=O)(O)O[C@H]3[C@@H](O)[C@H](n4cnc5c(N)ncnc54)O[C@@H]3COP(=O)(O)O[C@H]3[C@@H](O)[C@H](n4cnc5c(N)ncnc54)O[C@@H]3COP(=O)(O)O[C@H]2[C@H]1O [cA3]
HPLC ring nuclease assay (Crn4b; intermediate A3>P): Crn4b degraded cA4 and cA3 but was inactive against cA6

Compound: Nc1ncnc2c1ncn2[C@@H]1O[C@@H]2COP(=O)(O)O[C@H]3[C@@H](O)[C@H](n4cnc5c(N)ncnc54)O[C@@H]3COP(=O)(O)O[C@H]3[C@@H](O)[C@H](n4cnc5c(N)ncnc54)O[C@@H]3COP(=O)(O)O[C@H]3[C@@H](O)[C@H](n4cnc5c(N)ncnc54)O[C@@H]3COP(=O)(O)O[C@H]2[C@H]1O [cA4, cyclic tetra-adenylate]
HPLC ring nuclease assay (Crn4b; sequential cleavage via A4>P): Crn4b degraded cA4 and cA3 but was inactive against cA6

stoichiometry N [1]: 2
Compound: Hyphomicrobiales bacterium Crn4b (CRISPR ring nuclease 4, subfamily b), wild type (enzyme)

stoichiometry N [2]: 2
Compound: Actinomyces procaprae Crn4a (CRISPR ring nuclease 4, subfamily a), wild type (enzyme)

Compound: Actinomyces procaprae Crn4a H15A variant (enzyme)
stoichiometry N [3]: 2
